Experiments:
[1] = system: Eimeria acervulina, Eimeria maxima, and Eimeria tenella; test: First study: floor-pen broilers challenged with Eimeria on Day 7, test material in feed, Days 0-28; format: in vivo, broiler chicks
Method: (§1) Chicks were obtained within twelve hours of hatching from fecal contaminated flocks at a commercial hatchery on Day 0 (hatch and placement day). Three-hundred mixed-sex broiler chicks (50:50 sex ratio) were randomly assigned on Day 0 by individual weights to each of several test group pens, each with replicates. Only antibiotic-free birds were sourced, and no coccidiosis vaccine was administered at the hatchery or at any time during the study. Chicks were evaluated upon receipt for signs of disease or other complications that could affect study outcome. Weak birds were humanely sacrificed. Birds were not replaced during the study.
(§2) Following examination, chicks were weighed and allocated to pens for the various treatment groups using a randomized block design. Weight distribution across the treatment groups was assessed prior to feeding by comparing the individual test groups' standard deviations of the mean against that of the control group. Weight distribution across the groups was considered acceptable for this study when differences between control and test groups were within one standard deviation.
(§3) All birds received nutritionally adequate diets as pellets (crumbled pellets for Days 1-14). Birds were fed their respective treatment diets ad libitum from day of hatch to 28 days of age. (The typical average market age is 42 days.) Birds were raised on built-up litter to further mimic stress conditions typically experienced in poultry production.
(§4) All diets were offered ad libitum without restrictions to full-fed consumption, except for an 8-hour fasting period prior to cocci-challenge on Day 7 when all birds assigned to challenge test groups received oocyst-inoculated feed containing a mixture of Eimeria acervulina, Eimeria maxima, and Eimeria tenella. Dietary requirements for protein, lysine, methionine, methionine+cystine, arginine, threonine, tryptophan, total phosphorus, available phosphorus, total calcium, dietary sodium, and dietary choline were met by adjusting the concentrations of corn and soybean meal ingredients, as well as other minor ingredients commonly used in poultry production.
(§5) Pens were monitored for environmental conditions, including temperature, lighting, water, feed, litter condition, and unanticipated house conditions/events. Pens were checked daily for mortality. Examinations were performed on all broilers found dead or moribund. Mortalities were recorded (date and weight) and examined (both internal and external body mass).
Cocci-Challenge—On Day 7, all birds assigned to challenged test groups received oocyst-inoculated feed containing a mixture of Eimeria acervulina, Eimeria maxima, and Eimeria tenella. Adequate feed was precisely weighed and provided to birds to consume at the rate of 100% fill-capacity on average. Prior to the challenge, all birds were starved for eight hours. Inoculated feed was provided to the birds. Following a specific time, all remaining inoculated feed was removed and weighed to assure equal consumption per pen and per bird. The quantity of feed (both placed and withdrawn) was recorded on each pen's feed record.
Differences between groups were evaluated at P<0.05, employing Treatment x Replicate RCB (Randomized Complete Block) design. Particularly and as noted, “Significance (P<0.05)” refers to means for groups not sharing common letter designations in the figures which indicates significant difference (P<0.05) between said groups, as determined by Duncan's New Multiple Range Test (MRT 1955).

[2] = system: Eimeria acervulina, Eimeria maxima, and Eimeria tenella; test: Second study: dried bacterial biomass feed ingredients in cocci-challenged floor-pen broilers on built-up litter, Days 1-28; format: in vivo, broiler chicks
From the text: A second study was undertaken to determine the response and efficacy of a dried bacterial biomass feed ingredient incorporated at a specific amount into a commercial-type corn-soybean diet and fed to floor-pen raised broilers. The second study was undertaken over a 28-day period, from Day 1 to Day 28.
The animals were raised under a disease challenge environment (cocci-challenge+built-up litter). For the study and as set forth in FIG. 15, six groups were established, including a first group that received no feed additive ingredient, a second group treated with the anti-coccidia drug Coban® (Elanco), a third group fed a Variovorax-based biomass, a fourth group fed a Brevundimonas-based biomass, a fifth group fed a Sphingomonas-based biomass, and a sixth group fed a 50:50 mixture of a Variovorax and Brevundimonas-based biomass. The feed included corn and soybean meal rations with normal nutritional formulations. No coccidiostat (except for treatment with Coban® provided to the second group) or ABF (antibiotic free products) were administered during the study. No coccidiosis vaccine was administered at the hatchery or during the course of the study.
as §1, with “A total of 1,800 mixed sex broiler chicks were obtained” for “Chicks were obtained”, “placement day). A number of mixed-sex broiler” for “placement day). Three-hundred mixed-sex broiler”, “weights to one of several” for “weights to each of several”
as §2, §3
as §4, with “assigned to the challenge test” for “assigned to challenge test”
as §5
Cocci-Challenge—On Day 7, all birds assigned to the challenge test groups received oocyst-inoculated feed containing a mixture of Eimeria acervulina, Eimeria maxima, and Eimeria tenella. Adequate feed was precisely weighed and provided to birds to consume at the rate of 100% fill-capacity on average. […]

[3] = cocci challenge Day 7, Days 1-28
[4] = mortality-corrected, cocci challenge Day 7, Days 1-28

`CC[C@@]1([C@@H]2O[C@@H]([C@H]3O[C@@](O)(CO)[C@H](C)C[C@@H]3C)C[C@@H]2C)CC[C@H]([C@]2(C)CC[C@]3(C[C@H](O)[C@@H](C)[C@@H]([C@@H](C)[C@@H](OC)[C@H](C)C(=O)O)O3)O2)O1` [Coban, Monensin, USP] was tested, and the “Lesion Score Ceca Day 28” value ([1]; Day 28) was 0.583, the “Lesion Score Ileum Day 28” value ([1]; Day 28) was 0.433 and the “Lesion Score Duodenum Day 28” value ([1]; Johnson and Reid method, Day 28) was 0.525. For the same compound, the “Avg Pen Body Weight (g) Day 28” value ([1]; cocci challenge Day 7, Day 28) was 1430.88 g, the “Feed Intake (g/bird/day) Day 28” value ([1]; cocci challenge Day 7, Day 28) was 89.499 g/bird/day and the “% Mortality Days 1-28” value [1, 3] was 1.852%. The “Feed Conversion Ratio Corrected Days 1-28” value [1, 4] was 1.527, the “Coccidia Incidence Score Small Intestine Day 28” value ([2]; Day 28) was 0.325 and the “Lesion Score Duodenum Day 28” value ([2]; Day 28) was 0.317. For the same compound, the “Avg Pen Body Weight (g) Day 28” value ([2]; cocci challenge Day 7, Day 28) was 1443.182 g, the “Feed Intake (g/bird/day) Day 28” value ([2]; cocci challenge Day 7, Day 28) was 75.493 g/bird/day and the “% Mortality Days 1-28” value [2, 3] was 3.750%. For the same compound, the “Feed Conversion Ratio Corrected Days 1-28” value [2, 4] was 1.403.
